Assay results reported in ChEMBL document CHEMBL1201862, “PubChem BioAssay data set” (2004).
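Protocol summary: plate cells (96-well), add compound at 5 concentrations, incubate 48 h, interpolate endpoints linearly. The concentration for 50% growth inhibition is given as GI50.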 Calls of active or inactive are those of the source. Cut-off read from the data, not from the text of the source: active = GI50 up to about 1.1 µM and inactive = higher.

Columns and labels:
Assay in all cases: NCI anticancer screen, dose series, 48 h
[1] = tested on: ACHN
[2] = tested on: BT-549
[3] = tested on: DU-145
[4] = tested on: HCT-116
[5] = tested on: HCT-15
[6] = tested on: HL-60
[7] = tested on: HOP-92
[8] = tested on: LOX IMVI
[9] = tested on: M14
[10] = tested on: MDA-N
[11] = tested on: Malme-3M
[12] = tested on: NCI-H226
[13] = tested on: OVCAR-4
[14] = tested on: PC-3
[15] = tested on: RPMI-8226
[16] = tested on: RXF 393
[17] = tested on: SN12C
[18] = tested on: SNB-75
[19] = tested on: T47D

| SMILES | GI50 [1] | GI50 [2] | GI50 [3] | GI50 [4] | GI50 [5] [µM] | GI50 [6] | GI50 [7] | GI50 [8] | GI50 [9] | GI50 [10] | GI50 [11] | GI50 [12] | GI50 [13] | GI50 [14] | GI50 [15] | GI50 [16] | GI50 [17] | GI50 [18] | GI50 [19] |
| --- | --- | --- | --- | --- | --- | --- | --- | --- | --- | --- | --- | --- | --- | --- | --- | --- | --- | --- | --- |
| Sc1nnc(SCc2ccccc2Cl)c2nc[nH]c12 | > 100 µM (inactive) | > 100 µM (inactive) | > 100 µM (inactive) | > 100 µM (inactive) | > 100 | > 100 µM (inactive) | > 100 µM (inactive) | > 100 µM (inactive) | > 100 µM (inactive) | > 100 µM (inactive) | > 100 µM (inactive) | > 100 µM (inactive) | > 100 µM (inactive) | > 100 µM (inactive) | > 100 µM (inactive) | > 100 µM (inactive) | > 100 µM (inactive) | > 100 µM (inactive) | > 100 µM (inactive) |
| O=C(Nc1ccc2cc3ccccc3cc2c1)c1cc2c(cc1Cl)Sc1nccn1S2(=O)=O | 67.1 µM (inactive) | 32.5 µM (inactive) | 20.6 µM (inactive) | 3.85 µM (inactive) | 20.7 | 17.7 µM (inactive) | 42 µM (inactive) | 16.8 µM (inactive) | 42.7 µM (inactive) | 44.4 µM (inactive) | 19.5 µM (inactive) | 82.8 µM (inactive) | 10.3 µM (inactive) | 6.47 µM (inactive) | > 100 µM (inactive) | 45.6 µM (inactive) | 60.3 µM (inactive) | 13.3 µM (inactive) | 25.2 µM (inactive) |
| OC(c1cc(C(F)(F)F)nc2c(Cl)cc(Cl)cc12)C1CCCCN1 (stereo not drawn) | > 24.4 µM (inactive) | 14.5 µM (inactive) | 7.01 µM (inactive) | 13.6 µM (inactive) | 13 | 5.82 µM (inactive) | 7.26 µM (inactive) | 2.93 µM (inactive) | > 25.1 µM (inactive) | 77.1 µM (inactive) | – | 16.8 µM (inactive) | 5.01 µM (inactive) | > 22.5 µM (inactive) | 1.95 µM (inactive) | 4.8 µM (inactive) | – | 11.8 µM (inactive) | 5.65 µM (inactive) |
| Cc1cc(C)c(S(=O)(=O)N(CCCCN)OCCCN)c(C)c1 | 22.5 µM (inactive) | 19.1 µM (inactive) | 15.6 µM (inactive) | 16.7 µM (inactive) | – | – | 19 µM (inactive) | 15.2 µM (inactive) | 18.7 µM (inactive) | 16.4 µM (inactive) | 20.9 µM (inactive) | 16.5 µM (inactive) | 17.5 µM (inactive) | 13.3 µM (inactive) | 8.04 µM (inactive) | 15.2 µM (inactive) | 18.7 µM (inactive) | 13.5 µM (inactive) | 18.2 µM (inactive) |
| O=C(/C=C/c1ccccc1)CSc1nc2ccc(I)cc2c(=O)n1Cc1ccccc1 | 7.64 µM (inactive) | > 77.4 µM (inactive) | 15.2 µM (inactive) | 19.8 µM (inactive) | 19.5 | 17.1 µM (inactive) | 5.55 µM (inactive) | 37 µM (inactive) | 55.1 µM (inactive) | 30.8 µM (inactive) | 23.6 µM (inactive) | 12.7 µM (inactive) | 21.3 µM (inactive) | 18.3 µM (inactive) | 13.6 µM (inactive) | 17 µM (inactive) | 9.86 µM (inactive) | 29.8 µM (inactive) | 9.16 µM (inactive) |
| O=C(/C=C/c1ccc(OCc2cccc(Cl)c2)cc1)NO | 11.3 µM (inactive) | 24.8 µM (inactive) | 15.3 µM (inactive) | 11.5 µM (inactive) | 5.05 | 11.1 µM (inactive) | 14.1 µM (inactive) | 6.28 µM (inactive) | 21 µM (inactive) | 18.6 µM (inactive) | – | 14 µM (inactive) | 13.5 µM (inactive) | 12.6 µM (inactive) | 7.48 µM (inactive) | 15.5 µM (inactive) | 20.6 µM (inactive) | 20.4 µM (inactive) | 7.52 µM (inactive) |
| COc1ccc(N[C@H]([C@@H](c2ccccc2)[S+]([O-])c2ccc(C)cc2)C(F)(F)F)cc1 (stereo partly drawn) | 35 µM (inactive) | 38.6 µM (inactive) | 62.8 µM (inactive) | 29.4 µM (inactive) | 30 | 19.1 µM (inactive) | 34 µM (inactive) | 53.1 µM (inactive) | 45.6 µM (inactive) | 74.8 µM (inactive) | 75.2 µM (inactive) | 48.4 µM (inactive) | 26 µM (inactive) | 21.1 µM (inactive) | – | 53.5 µM (inactive) | 71.8 µM (inactive) | 24.8 µM (inactive) | > 100 µM (inactive) |
| CC(=O)O[C@@H]1[C@H]2[C@@H](OC(=O)c3ccccc3)[C@@H](C)C[C@]2(O)[C@H](OC(C)=O)[C@@]2(C)[C@@H]3C[C@@](C)(OC(C)=O)C[C@@H](OC(C)=O)[C@@]3(OC(C)=O)C[C@@]12C | > 10 µM (inactive) | > 10 µM (inactive) | > 10 µM (inactive) | > 10 µM (inactive) | > 10 | > 10 µM (inactive) | > 10 µM (inactive) | > 10 µM (inactive) | > 10 µM (inactive) | > 10 µM (inactive) | – | > 10 µM (inactive) | > 10 µM (inactive) | > 10 µM (inactive) | – | > 10 µM (inactive) | > 10 µM (inactive) | > 10 µM (inactive) | > 10 µM (inactive) |
| CC(=O)OCC1OC(N2C(=O)NC(=O)C3C=C4CCCCC4=CC32)C(OC(C)=O)C1OC(C)=O (stereo not drawn) | > 100 µM (inactive) | > 100 µM (inactive) | > 100 µM (inactive) | > 100 µM (inactive) | > 100 | > 100 µM (inactive) | > 100 µM (inactive) | > 100 µM (inactive) | > 100 µM (inactive) | > 100 µM (inactive) | > 100 µM (inactive) | – | > 100 µM (inactive) | > 100 µM (inactive) | > 100 µM (inactive) | > 100 µM (inactive) | > 100 µM (inactive) | – | > 100 µM (inactive) |
| O=C1CC(=O)c2c(O)cc(O)c(c2O)-c2c(ccc(O)c2O)C2=CC(=O)c3c(O)cc(O)c(c3O2)-c2c1ccc(O)c2O.O=C1CC2(O)Oc3c1c(O)cc(O)c3-c1c(ccc(O)c1O)-c1cc(=O)c3c(O)cc(O)c(c3o1)-c1c2ccc(O)c1O | – | > 50 µM (inactive) | > 50 µM (inactive) | > 50 µM (inactive) | > 50 | > 50 µM (inactive) | > 50 µM (inactive) | > 50 µM (inactive) | > 50 µM (inactive) | > 50 µM (inactive) | > 50 µM (inactive) | > 50 µM (inactive) | > 50 µM (inactive) | > 50 µM (inactive) | – | > 50 µM (inactive) | > 50 µM (inactive) | > 50 µM (inactive) | > 50 µM (inactive) |
| COc1ccc2c3c1OC1C(F)C=CC4(O)C(C2)NCCC314 (stereo not drawn) | 2.65 µM (inactive) | 1.93 µM (inactive) | 2.82 µM (inactive) | 1.24 µM (inactive) | 2.37 | – | 2.87 µM (inactive) | 2.31 µM (inactive) | 1.65 µM (inactive) | 2.42 µM (inactive) | 1.97 µM (inactive) | 11.2 µM (inactive) | 1.95 µM (inactive) | 2.07 µM (inactive) | 0.834 µM (active) | 1.62 µM (inactive) | 1.98 µM (inactive) | 2.06 µM (inactive) | 0.753 µM (active) |
| COC(=O)c1cc2c(cc1CC(Cc1ccc3c(c1)CCC3)C(=O)OC)CCC2 (stereo not drawn) | 45.7 µM (inactive) | > 100 µM (inactive) | 83.8 µM (inactive) | 40.7 µM (inactive) | 39.2 | 8.61 µM (inactive) | 21 µM (inactive) | 40.6 µM (inactive) | 72.8 µM (inactive) | 38 µM (inactive) | 41.3 µM (inactive) | 7.24 µM (inactive) | 24 µM (inactive) | 16.6 µM (inactive) | 16.5 µM (inactive) | 18.1 µM (inactive) | > 100 µM (inactive) | 22.9 µM (inactive) | 26.8 µM (inactive) |
| C/C(=N\Nc1nc2ccccc2[nH]1)c1cccc[n+]1[O-] | 71 µM (inactive) | > 100 µM (inactive) | > 100 µM (inactive) | 88.3 µM (inactive) | 51.5 | – | 33.9 µM (inactive) | 56.6 µM (inactive) | > 100 µM (inactive) | > 100 µM (inactive) | 52.7 µM (inactive) | 45.4 µM (inactive) | > 100 µM (inactive) | > 100 µM (inactive) | > 100 µM (inactive) | 45.2 µM (inactive) | > 100 µM (inactive) | – | > 100 µM (inactive) |
| O=C(O)C1(C(O)c2ccccc2)SCCCS1 (stereo not drawn) | > 10 µM (inactive) | > 10 µM (inactive) | > 10 µM (inactive) | > 10 µM (inactive) | > 10 | > 10 µM (inactive) | > 10 µM (inactive) | > 10 µM (inactive) | > 10 µM (inactive) | > 10 µM (inactive) | > 10 µM (inactive) | > 10 µM (inactive) | – | > 10 µM (inactive) | – | > 10 µM (inactive) | > 10 µM (inactive) | > 10 µM (inactive) | > 10 µM (inactive) |
| O=C(O)c1cnc2c(ccc3ncc(C(=O)O)c(O)c32)c1O | > 100 µM (inactive) | > 100 µM (inactive) | > 100 µM (inactive) | > 100 µM (inactive) | > 100 | > 100 µM (inactive) | > 100 µM (inactive) | > 100 µM (inactive) | > 100 µM (inactive) | > 100 µM (inactive) | > 100 µM (inactive) | > 100 µM (inactive) | > 100 µM (inactive) | > 100 µM (inactive) | > 100 µM (inactive) | > 100 µM (inactive) | > 100 µM (inactive) | 34.8 µM (inactive) | > 100 µM (inactive) |
